In this assay the target is Delta-type opioid receptor (Homo sapiens, UniProt P41143). Description: DOR antagonists, SAR follow-up, image-based (AID 2357).

The values that follow come from BindingDB's records for doi:10.7270/Q28K77JP (Burnham Center For Chemical Genomics, 2010).

SMILES strings stand for the structures.

As usually defined, the IC50 is the point on the concentration scale where inhibition reaches its midpoint.

Delta-type opioid receptor, sequence (P41143 whole entry): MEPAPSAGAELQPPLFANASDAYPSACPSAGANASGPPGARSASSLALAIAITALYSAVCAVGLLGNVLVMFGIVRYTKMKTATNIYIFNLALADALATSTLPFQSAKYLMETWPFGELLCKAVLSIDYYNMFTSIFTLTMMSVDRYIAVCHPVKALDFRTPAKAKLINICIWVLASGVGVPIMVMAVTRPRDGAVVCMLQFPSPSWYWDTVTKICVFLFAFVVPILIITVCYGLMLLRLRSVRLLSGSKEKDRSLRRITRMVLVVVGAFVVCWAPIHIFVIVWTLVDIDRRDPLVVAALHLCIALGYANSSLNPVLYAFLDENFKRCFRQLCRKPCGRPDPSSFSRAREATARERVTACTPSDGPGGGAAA

As for `CCC(N=Nc1ccnc2cc(Cl)ccc12)c1ccc(O)cc1` (configuration not stated) [4-[1-[2-(7-chloroquinolin-4-yl)hydrazinyl]propylidene]cyclohexa-2,5-dien-1-one], half-maximal inhibition (IC50) was put at 32 µM. The same measure for `Oc1ccc(CN=Nc2ccnc3cc(Cl)ccc23)cc1O` [(4Z)-4-[[2-(7-chloroquinolin-4-yl)hydrazinyl]methylidene]-2-hydroxycyclohexa-2,5-dien-1-one]: 18.9 µM.
